Measurements from ChEMBL document CHEMBL3272333, “Synthesis and biologic distribution of radioiodinated beta-adrenergic antagonists” (J Med Chem, 1978).

What was measured:
Set-up in all cases: dose 0.5-1 mg/kg, route intravenous
Large intestine [1] = experiment: Biodistribution in Sprague-Dawley rat large intestine assessed per organ at 0.5 to 1 mg/kg, iv after 15 mins by gamma-well counting analysis; assay type: ADME, organism-based; conditions: in vivo, 0.25 h
Heart [2] = experiment: Biodistribution in Sprague-Dawley rat heart at 0.5 to 1 mg/kg, iv after 15 mins by gamma-well counting analysis; assay type: ADME, organism-based; conditions: in vivo, 0.25 h
Heart [3] = experiment: Biodistribution in Sprague-Dawley rat heart at 0.5 to 1 mg/kg, iv after 1 hr by gamma-well counting analysis; assay type: ADME, organism-based; conditions: in vivo
Blood [4] = experiment: Biodistribution in Sprague-Dawley rat blood assessed per organ at 0.5 to 1 mg/kg, iv after 1 hr by gamma-well counting analysis; assay type: ADME, organism-based; conditions: in vivo
Thyroid gland [5] = experiment: Biodistribution in Sprague-Dawley rat thyroid at 0.5 to 1 mg/kg, iv after 1 hr by gamma-well counting analysis; assay type: ADME, organism-based; conditions: in vivo
Blood [6] = experiment: Biodistribution in Sprague-Dawley rat blood at 0.5 to 1 mg/kg, iv after 1 hr by gamma-well counting analysis; assay type: ADME, organism-based; conditions: in vivo
Lung [7] = experiment: Biodistribution in Sprague-Dawley rat lung at 0.5 to 1 mg/kg, iv after 15 mins by gamma-well counting analysis; assay type: ADME, organism-based; conditions: in vivo, 0.25 h
Spleen [8] = experiment: Biodistribution in Sprague-Dawley rat spleen at 0.5 to 1 mg/kg, iv after 1 hr by gamma-well counting analysis; assay type: ADME, organism-based; conditions: in vivo
Liver [9] = experiment: Biodistribution in Sprague-Dawley rat liver assessed per organ at 0.5 to 1 mg/kg, iv after 1 hr by gamma-well counting analysis; assay type: ADME, organism-based; conditions: in vivo
Kidney [10] = experiment: Biodistribution in Sprague-Dawley rat kidney at 0.5 to 1 mg/kg, iv after 15 mins by gamma-well counting analysis; assay type: ADME, organism-based; conditions: in vivo, 0.25 h
Muscle tissue [11] = experiment: Biodistribution in Sprague-Dawley rat muscle at 0.5 to 1 mg/kg, iv after 1 hr by gamma-well counting analysis; assay type: ADME, organism-based; conditions: in vivo
Bone [12] = experiment: Biodistribution in Sprague-Dawley rat bone at 0.5 to 1 mg/kg, iv after 15 mins by gamma-well counting analysis; assay type: ADME, organism-based, Bone element; conditions: in vivo, 0.25 h
Spleen [13] = experiment: Biodistribution in Sprague-Dawley rat spleen at 0.5 to 1 mg/kg, iv after 15 mins by gamma-well counting analysis; assay type: ADME, organism-based; conditions: in vivo, 0.25 h
Kidney [14] = experiment: Biodistribution in Sprague-Dawley rat kidney assessed per organ at 0.5 to 1 mg/kg, iv after 1 hr by gamma-well counting analysis; assay type: ADME, organism-based; conditions: in vivo
Liver [15] = experiment: Biodistribution in Sprague-Dawley rat liver assessed per organ at 0.5 to 1 mg/kg, iv after 15 mins by gamma-well counting analysis; assay type: ADME, organism-based; conditions: in vivo, 0.25 h
Thyroid gland [16] = experiment: Biodistribution in Sprague-Dawley rat thyroid at 0.5 to 1 mg/kg, iv after 15 mins by gamma-well counting analysis; assay type: ADME, organism-based; conditions: in vivo, 0.25 h
Bone [17] = experiment: Biodistribution in Sprague-Dawley rat bone assessed per organ at 0.5 to 1 mg/kg, iv after 1 hr by gamma-well counting analysis; assay type: ADME, organism-based, Bone element; conditions: in vivo
Spleen [18] = experiment: Biodistribution in Sprague-Dawley rat spleen assessed per organ at 0.5 to 1 mg/kg, iv after 1 hr by gamma-well counting analysis; assay type: ADME, organism-based; conditions: in vivo
Thyroid gland [19] = experiment: Biodistribution in Sprague-Dawley rat thyroid assessed per organ at 0.5 to 1 mg/kg, iv after 15 mins by gamma-well counting analysis; assay type: ADME, organism-based; conditions: in vivo, 0.25 h
Heart [20] = experiment: Biodistribution in Sprague-Dawley rat heart assessed per organ at 0.5 to 1 mg/kg, iv after 15 mins by gamma-well counting analysis; assay type: ADME, organism-based; conditions: in vivo, 0.25 h
Stomach [21] = experiment: Biodistribution in Sprague-Dawley rat stomach assessed per organ at 0.5 to 1 mg/kg, iv after 15 mins by gamma-well counting analysis; assay type: ADME, organism-based; conditions: in vivo, 0.25 h
Blood [22] = experiment: Biodistribution in Sprague-Dawley rat blood at 0.5 to 1 mg/kg, iv after 15 mins by gamma-well counting analysis; assay type: ADME, organism-based; conditions: in vivo, 0.25 h
Spleen [23] = experiment: Biodistribution in Sprague-Dawley rat spleen assessed per organ at 0.5 to 1 mg/kg, iv after 15 mins by gamma-well counting analysis; assay type: ADME, organism-based; conditions: in vivo, 0.25 h
Lung [24] = experiment: Biodistribution in Sprague-Dawley rat lung at 0.5 to 1 mg/kg, iv after 1 hr by gamma-well counting analysis; assay type: ADME, organism-based; conditions: in vivo
Small intestine [25] = experiment: Biodistribution in Sprague-Dawley rat small intestine assessed per organ at 0.5 to 1 mg/kg, iv after 15 mins by gamma-well counting analysis; assay type: ADME, organism-based; conditions: in vivo, 0.25 h
Stomach [26] = experiment: Biodistribution in Sprague-Dawley rat stomach assessed per organ at 0.5 to 1 mg/kg, iv after 1 hr by gamma-well counting analysis; assay type: ADME, organism-based; conditions: in vivo
Thyroid gland [27] = experiment: Biodistribution in Sprague-Dawley rat thyroid assessed per organ at 0.5 to 1 mg/kg, iv after 1 hr by gamma-well counting analysis; assay type: ADME, organism-based; conditions: in vivo
Kidney [28] = experiment: Biodistribution in Sprague-Dawley rat kidney at 0.5 to 1 mg/kg, iv after 1 hr by gamma-well counting analysis; assay type: ADME, organism-based; conditions: in vivo
Liver [29] = experiment: Biodistribution in Sprague-Dawley rat liver at 0.5 to 1 mg/kg, iv after 1 hr by gamma-well counting analysis; assay type: ADME, organism-based; conditions: in vivo
Bone [30] = experiment: Biodistribution in Sprague-Dawley rat bone assessed per organ at 0.5 to 1 mg/kg, iv after 15 mins by gamma-well counting analysis; assay type: ADME, organism-based, Bone element; conditions: in vivo, 0.25 h
[31] = Biodistribution in Sprague-Dawley rat fat and fur assessed per organ at 0.5 to 1 mg/kg, iv after 1 hr by gamma-well counting analysis; assay type: ADME, organism-based, Adipose tissue; conditions: in vivo
Muscle tissue [32] = experiment: Biodistribution in Sprague-Dawley rat muscle assessed per organ at 0.5 to 1 mg/kg, iv after 15 mins by gamma-well counting analysis; assay type: ADME, organism-based; conditions: in vivo, 0.25 h
[33] = Biodistribution in Sprague-Dawley rat fat and fur assessed per organ at 0.5 to 1 mg/kg, iv after 15 mins by gamma-well counting analysis; assay type: ADME, organism-based, Adipose tissue; conditions: in vivo, 0.25 h
Small intestine [34] = experiment: Biodistribution in Sprague-Dawley rat small intestine assessed per organ at 0.5 to 1 mg/kg, iv after 1 hr by gamma-well counting analysis; assay type: ADME, organism-based; conditions: in vivo
Lung [35] = experiment: Biodistribution in Sprague-Dawley rat lung assessed per organ at 0.5 to 1 mg/kg, iv after 15 mins by gamma-well counting analysis; assay type: ADME, organism-based; conditions: in vivo, 0.25 h
Kidney [36] = experiment: Biodistribution in Sprague-Dawley rat kidney assessed per organ at 0.5 to 1 mg/kg, iv after 15 mins by gamma-well counting analysis; assay type: ADME, organism-based; conditions: in vivo, 0.25 h
Heart [37] = experiment: Biodistribution in Sprague-Dawley rat heart assessed per organ at 0.5 to 1 mg/kg, iv after 1 hr by gamma-well counting analysis; assay type: ADME, organism-based; conditions: in vivo
Lung [38] = experiment: Biodistribution in Sprague-Dawley rat lung assessed per organ at 0.5 to 1 mg/kg, iv after 1 hr by gamma-well counting analysis; assay type: ADME, organism-based; conditions: in vivo
Liver [39] = experiment: Biodistribution in Sprague-Dawley rat liver at 0.5 to 1 mg/kg, iv after 15 mins by gamma-well counting analysis; assay type: ADME, organism-based; conditions: in vivo, 0.25 h
Bone [40] = experiment: Biodistribution in Sprague-Dawley rat bone at 0.5 to 1 mg/kg, iv after 1 hr by gamma-well counting analysis; assay type: ADME, organism-based, Bone element; conditions: in vivo
Large intestine [41] = experiment: Biodistribution in Sprague-Dawley rat large intestine assessed per organ at 0.5 to 1 mg/kg, iv after 1 hr by gamma-well counting analysis; assay type: ADME, organism-based; conditions: in vivo
Muscle tissue [42] = experiment: Biodistribution in Sprague-Dawley rat muscle assessed per organ at 0.5 to 1 mg/kg, iv after 1 hr by gamma-well counting analysis; assay type: ADME, organism-based; conditions: in vivo
Blood [43] = experiment: Biodistribution in Sprague-Dawley rat blood assessed per organ at 0.5 to 1 mg/kg, iv after 15 mins by gamma-well counting analysis; assay type: ADME, organism-based; conditions: in vivo, 0.25 h
Muscle tissue [44] = experiment: Biodistribution in Sprague-Dawley rat muscle at 0.5 to 1 mg/kg, iv after 15 mins by gamma-well counting analysis; assay type: ADME, organism-based; conditions: in vivo, 0.25 h

Structure (SMILES): CC(C)NCC(O)COc1ccc(NC(=O)c2cccc([125I])c2)cc1 (racemic)
- Drug uptake (Large intestine [1]): 0.56 %ID
- Drug uptake (Heart [2]): 0.89 % ID/g
- Drug uptake (Heart [3]): 0.51 % ID/g
- Drug uptake (Blood [4]): 0.86 %ID
- Drug uptake (Thyroid gland [5]): 3.58 % ID/g
- Drug uptake (Blood [6]): 0.06 % ID/g
- Drug uptake (Lung [7]): 1.24 % ID/g
- Drug uptake (Spleen [8]): 1.14 % ID/g
- Drug uptake (Liver [9]): 15.97 %ID
- Drug uptake (Kidney [10]): 1.82 % ID/g
- Drug uptake (Muscle tissue [11]): 0.17 % ID/g
- Drug uptake (Bone [12]): 0.21 % ID/g
- Drug uptake (Spleen [13]): 1.33 % ID/g
- Drug uptake (Kidney [14]): 2.3 %ID
- Drug uptake (Liver [15]): 18.94 %ID
- Drug uptake (Thyroid gland [16]): 4.73 % ID/g
- Drug uptake (Bone [17]): 2.44 %ID
- Drug uptake (Spleen [18]): 0.6 %ID
- Drug uptake (Thyroid gland [19]): 0.1 %ID
- Drug uptake (Heart [20]): 0.64 %ID
- Drug uptake (Stomach [21]): 0.71 %ID
- Drug uptake (Blood [22]): 0.06 % ID/g
- Drug uptake (Spleen [23]): 0.8 %ID
- Drug uptake (Lung [24]): 1.82 % ID/g
- Drug uptake (Small intestine [25]): 2.45 %ID
- Drug uptake (Stomach [26]): 0.7 %ID
- Drug uptake (Thyroid gland [27]): 0.07 %ID
- Drug uptake (Kidney [28]): 1.27 % ID/g
- Drug uptake (Liver [29]): 1.39 % ID/g
- Drug uptake (Bone [30]): 2.93 %ID
- Drug uptake [31]: 7.19 %ID
- Drug uptake (Muscle tissue [32]): 18.27 %ID
- Drug uptake [33]: 5.87 %ID
- Drug uptake (Small intestine [34]): 5.49 %ID
- Drug uptake (Lung [35]): 1.89 %ID
- Drug uptake (Kidney [36]): 3.45 %ID
- Drug uptake (Heart [37]): 0.35 %ID
- Drug uptake (Lung [38]): 2.19 %ID
- Drug uptake (Liver [39]): 1.76 % ID/g
- Drug uptake (Bone [40]): 0.18 % ID/g
- Drug uptake (Large intestine [41]): 0.94 %ID
- Drug uptake (Muscle tissue [42]): 15.96 %ID
- Drug uptake (Blood [43]): 0.79 %ID
- Drug uptake (Muscle tissue [44]): 0.2 % ID/g
